The text below walks through data of PMC9431551, “Isolation of the Thermostable β-Glucosidase-Secreting Strain Bacillus altitudinis JYY-02 and Its Application in the Production of Gardenia Blue” (Microbiology Spectrum, 2022).

Structures are written as SMILES.

The assay relates to T1, recombinant β-glucosidase of B. altitudinis JYY-02 (bgl).
T1 construct: full-length ORF 1,467 bp, 488 residues, N-terminus MTTIKG from forward primer; E. coli BL21(DE3); 54 kDa
Kind of assay: p-nitrophenol release at […] nm, Lineweaver-Burk plot. In kind it is biochemical, Bacillus altitudinis. The conditions noted are these: citrate-disodium hydrogen phosphate buffer 0.2 M, pH 5.6, 55°C (standard assay); abstract prints 0.331 mM.

As a reminder, the Km is the substrate concentration at which the rate is half of its maximum. `O=[N+]([O-])c1ccc(O[C@@H]2O[C@H](CO)[C@@H](O)[C@H](O)[C@H]2O)cc1` [p-nitrophenyl-β-D-glucopyranoside]: the Km amounted to 332 µM.
